# Data taken from article PMC9329436, “Optimization of the 4-anilinoquin(az)oline scaffold as epidermal growth factor receptor (EGFR) inhibitors for chordoma utilizing a toxicology profiling assay platform” (Scientific Reports, 2022).
# Like-named read-outs stand apart in the source and are kept apart here.
# Experiments:
# Format in all cases: biochemical
# [1] = molecular target: 320 wild-type protein kinases (Homo sapiens, UniProt P36507); details: singlicate
# Excerpt: (§1) Table S4. Profiling of two compounds at two concentrations against 320 wild-type protein kinases; singlicate measurement; Residual activities (% of control).
# [2] = molecular target: 320 wild-type protein kinases (Homo sapiens, UniProt Q86Y07); details: kinase VRK2, singlicate
# Sequence of 320 wild-type protein kinases (Homo sapiens, UniProt Q86Y07) (Q86Y07 whole entry): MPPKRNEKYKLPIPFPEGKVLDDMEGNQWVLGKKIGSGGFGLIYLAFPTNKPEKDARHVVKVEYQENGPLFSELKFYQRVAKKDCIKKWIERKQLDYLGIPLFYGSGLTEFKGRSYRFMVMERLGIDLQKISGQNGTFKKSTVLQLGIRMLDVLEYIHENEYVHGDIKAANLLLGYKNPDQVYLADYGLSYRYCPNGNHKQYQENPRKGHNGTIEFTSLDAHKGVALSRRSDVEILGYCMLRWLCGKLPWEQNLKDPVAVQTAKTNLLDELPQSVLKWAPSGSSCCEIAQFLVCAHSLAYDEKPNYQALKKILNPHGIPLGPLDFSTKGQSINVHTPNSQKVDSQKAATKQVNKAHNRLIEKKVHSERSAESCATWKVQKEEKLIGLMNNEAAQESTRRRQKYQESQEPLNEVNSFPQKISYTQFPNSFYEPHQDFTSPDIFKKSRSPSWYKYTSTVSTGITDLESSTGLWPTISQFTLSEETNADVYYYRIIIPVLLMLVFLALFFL
# Excerpt: as §1
# [3] = molecular target: 320 wild-type protein kinases (Homo sapiens, UniProt Q9UBS0); details: kinase S6K-beta, singlicate
# Sequence of 320 wild-type protein kinases (Homo sapiens, UniProt Q9UBS0) (Q9UBS0 whole entry): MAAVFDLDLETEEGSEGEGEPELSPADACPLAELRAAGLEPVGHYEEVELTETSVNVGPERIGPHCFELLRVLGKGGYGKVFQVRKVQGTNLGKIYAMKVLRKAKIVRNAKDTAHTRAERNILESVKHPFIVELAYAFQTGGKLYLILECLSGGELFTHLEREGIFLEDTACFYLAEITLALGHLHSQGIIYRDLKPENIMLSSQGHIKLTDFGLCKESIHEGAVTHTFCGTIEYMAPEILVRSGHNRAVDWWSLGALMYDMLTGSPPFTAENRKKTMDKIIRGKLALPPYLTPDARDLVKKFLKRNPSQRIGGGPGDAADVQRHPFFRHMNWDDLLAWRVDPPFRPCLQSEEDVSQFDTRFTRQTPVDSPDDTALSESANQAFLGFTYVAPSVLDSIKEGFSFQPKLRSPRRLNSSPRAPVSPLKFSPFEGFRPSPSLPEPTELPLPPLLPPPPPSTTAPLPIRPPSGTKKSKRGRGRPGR
# Excerpt: as §1
# [4] = molecular target: T1, 320 wild-type protein kinases (Homo sapiens, UniProt O00444); details: kinase SAK, singlicate
# T1 sequence (O00444 1-970): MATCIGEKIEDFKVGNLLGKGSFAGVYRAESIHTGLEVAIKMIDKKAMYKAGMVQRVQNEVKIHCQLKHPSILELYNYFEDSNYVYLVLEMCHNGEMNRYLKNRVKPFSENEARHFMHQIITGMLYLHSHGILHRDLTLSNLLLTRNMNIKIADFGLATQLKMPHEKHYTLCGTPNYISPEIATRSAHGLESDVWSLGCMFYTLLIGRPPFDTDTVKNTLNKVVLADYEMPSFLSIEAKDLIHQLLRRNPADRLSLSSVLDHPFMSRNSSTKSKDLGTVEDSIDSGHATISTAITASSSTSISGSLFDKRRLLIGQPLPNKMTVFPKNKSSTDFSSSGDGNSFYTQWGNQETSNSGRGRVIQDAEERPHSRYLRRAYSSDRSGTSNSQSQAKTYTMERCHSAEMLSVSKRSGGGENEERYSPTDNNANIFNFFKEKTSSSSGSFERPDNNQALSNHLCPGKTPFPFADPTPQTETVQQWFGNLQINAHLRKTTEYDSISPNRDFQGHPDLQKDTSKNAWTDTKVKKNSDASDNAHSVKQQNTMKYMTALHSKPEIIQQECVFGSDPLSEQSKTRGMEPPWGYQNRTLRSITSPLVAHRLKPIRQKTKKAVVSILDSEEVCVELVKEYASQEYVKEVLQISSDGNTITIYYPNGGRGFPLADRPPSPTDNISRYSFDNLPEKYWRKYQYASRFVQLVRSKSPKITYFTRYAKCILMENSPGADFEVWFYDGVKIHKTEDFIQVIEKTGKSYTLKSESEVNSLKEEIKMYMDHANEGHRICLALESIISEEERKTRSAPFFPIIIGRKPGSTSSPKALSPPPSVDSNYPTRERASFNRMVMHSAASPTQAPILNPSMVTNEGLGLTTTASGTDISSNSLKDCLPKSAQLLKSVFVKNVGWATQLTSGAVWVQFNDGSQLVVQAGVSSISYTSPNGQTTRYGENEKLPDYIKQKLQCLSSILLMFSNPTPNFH
# Excerpt: as §1
# [5] = molecular target: 320 wild-type protein kinases (Homo sapiens, UniProt Q9P286); details: singlicate
# Sequence of 320 wild-type protein kinases (Homo sapiens, UniProt Q9P286) (Q9P286 whole entry): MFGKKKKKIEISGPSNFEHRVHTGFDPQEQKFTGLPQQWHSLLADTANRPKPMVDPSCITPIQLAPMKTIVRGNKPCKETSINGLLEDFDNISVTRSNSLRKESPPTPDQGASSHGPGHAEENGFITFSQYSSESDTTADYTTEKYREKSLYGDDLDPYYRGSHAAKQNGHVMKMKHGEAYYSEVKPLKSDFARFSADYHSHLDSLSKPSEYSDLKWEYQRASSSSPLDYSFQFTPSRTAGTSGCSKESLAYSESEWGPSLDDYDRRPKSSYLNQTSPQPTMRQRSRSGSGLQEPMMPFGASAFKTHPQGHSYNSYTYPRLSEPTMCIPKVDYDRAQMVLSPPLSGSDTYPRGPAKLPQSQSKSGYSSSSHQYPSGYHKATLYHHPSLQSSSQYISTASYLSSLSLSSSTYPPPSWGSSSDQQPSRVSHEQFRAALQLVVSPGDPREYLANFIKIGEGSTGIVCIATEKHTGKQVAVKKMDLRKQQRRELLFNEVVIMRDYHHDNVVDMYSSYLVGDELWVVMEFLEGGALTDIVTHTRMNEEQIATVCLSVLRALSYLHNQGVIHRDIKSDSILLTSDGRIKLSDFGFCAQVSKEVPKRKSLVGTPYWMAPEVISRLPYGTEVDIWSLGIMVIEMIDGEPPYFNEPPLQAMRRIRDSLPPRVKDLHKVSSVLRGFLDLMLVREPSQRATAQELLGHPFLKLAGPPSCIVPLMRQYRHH
# Excerpt: as §1
# [6] = molecular target: T2, 320 wild-type protein kinases (Homo sapiens, UniProt P33981); details: kinase TTK, singlicate
# T2 sequence (P33981 1-857): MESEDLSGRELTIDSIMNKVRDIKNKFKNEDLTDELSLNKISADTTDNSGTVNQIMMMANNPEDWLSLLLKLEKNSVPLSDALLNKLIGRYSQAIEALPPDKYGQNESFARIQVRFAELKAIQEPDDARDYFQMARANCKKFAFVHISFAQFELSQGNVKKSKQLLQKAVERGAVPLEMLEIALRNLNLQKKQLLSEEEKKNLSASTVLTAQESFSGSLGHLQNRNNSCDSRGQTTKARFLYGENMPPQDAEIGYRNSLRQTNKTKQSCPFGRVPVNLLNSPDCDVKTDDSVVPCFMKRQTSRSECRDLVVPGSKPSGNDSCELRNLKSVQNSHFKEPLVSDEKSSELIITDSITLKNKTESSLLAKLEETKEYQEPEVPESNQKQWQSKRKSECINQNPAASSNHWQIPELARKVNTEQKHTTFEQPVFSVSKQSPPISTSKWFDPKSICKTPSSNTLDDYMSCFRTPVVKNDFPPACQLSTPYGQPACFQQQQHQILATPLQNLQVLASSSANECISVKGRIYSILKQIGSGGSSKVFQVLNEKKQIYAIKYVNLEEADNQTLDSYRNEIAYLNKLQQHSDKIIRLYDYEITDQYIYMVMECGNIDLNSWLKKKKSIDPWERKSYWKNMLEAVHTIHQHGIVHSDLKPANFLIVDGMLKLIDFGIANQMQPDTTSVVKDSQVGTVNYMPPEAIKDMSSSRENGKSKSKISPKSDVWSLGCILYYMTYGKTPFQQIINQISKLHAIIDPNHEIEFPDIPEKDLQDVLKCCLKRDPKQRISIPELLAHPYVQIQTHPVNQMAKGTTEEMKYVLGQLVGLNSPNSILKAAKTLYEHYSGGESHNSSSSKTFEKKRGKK
# Excerpt: as §1
# Sequence of 320 wild-type protein kinases (Homo sapiens, UniProt P36507) (P36507 whole entry): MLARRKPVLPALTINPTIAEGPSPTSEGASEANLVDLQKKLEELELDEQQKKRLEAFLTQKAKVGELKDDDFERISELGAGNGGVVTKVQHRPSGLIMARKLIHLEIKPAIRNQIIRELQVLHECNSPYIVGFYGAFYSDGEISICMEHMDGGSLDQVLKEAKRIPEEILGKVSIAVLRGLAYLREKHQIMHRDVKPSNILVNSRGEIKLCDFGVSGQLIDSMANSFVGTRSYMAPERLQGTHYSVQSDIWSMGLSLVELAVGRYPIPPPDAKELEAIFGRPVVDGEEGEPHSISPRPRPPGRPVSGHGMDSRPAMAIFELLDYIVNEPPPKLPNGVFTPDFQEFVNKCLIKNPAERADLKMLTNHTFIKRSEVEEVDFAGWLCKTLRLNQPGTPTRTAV
Structure (SMILES),"Residual activity ([1]; MEK2, 1.0E-06 M)","Residual activity ([1]; MEK2, 1.0E-07 M)","Residual activity, VRK2 ([2]; assay conc. 1.0E-06 M)","Residual activity, VRK2 ([2]; assay conc. 1.0E-07 M)","Residual activity, S6K-beta ([3]; assay conc. 1.0E-06 M)","Residual activity, S6K-beta ([3]; assay conc. 1.0E-07 M)","Residual activity, SAK ([4]; assay conc. 1.0E-06 M)","Residual activity, SAK ([4]; assay conc. 1.0E-07 M)","Residual activity ([5]; PAK7, 1.0E-06 M)","Residual activity ([5]; PAK7, 1.0E-07 M)","Residual activity, TTK ([6]; assay conc. 1.0E-06 M)","Residual activity, TTK ([6]; assay conc. 1.0E-07 M)"
C#Cc1cc(Nc2ncnc3cc(I)ccc23)ccc1Cl [Compound 41],80 % of control,101 % of control,97 % of control,95 % of control,102 % of control,96 % of control,77 % of control,95 % of control,81 % of control,108 % of control,81 % of control,100 % of control
C#Cc1cc(Nc2ncnc3cc(OC)c(OC)cc23)ccc1Cl [Compound 45],105 % of control,102 % of control,232 % of control,87 % of control,86 % of control,105 % of control,82 % of control,99 % of control,91 % of control,99 % of control,83 % of control,97 % of control
